In patent publication US7045653B2, “Pharmaceuticals” (Pfizer, Inc., priority 2003, dated 2006):

Assays:
[1] = target: T1, NEP (EC.3.4.24.11) from human kidney (Homo sapiens, UniProt P08473); experiment: IC50 against NEP; assay type: biochemical
T1 construct: determined using NEP (EC.3.4.24.11) from human kidney; from tissue; host or cells: human kidney
Method: IC50 values of the compounds of the invention against NEP and ACE were determined using methods described in published patent application EP1097719-A1, paragraphs [0368] to [0376]. The IC50 values presented below were determined using NEP (EC.3.4.24.11) from human kidney.

[2] = system: patients with essential hypertension; conditions: 24 black patients with essential hypertension; cited from earlier work
hypertensive patients = conditions: added to the ACE inhibitor lisinopril; 37 hypertensive patients; cited from earlier work
hypertensive rats = conditions: cited from earlier work

T1 sequence (P08473 whole entry): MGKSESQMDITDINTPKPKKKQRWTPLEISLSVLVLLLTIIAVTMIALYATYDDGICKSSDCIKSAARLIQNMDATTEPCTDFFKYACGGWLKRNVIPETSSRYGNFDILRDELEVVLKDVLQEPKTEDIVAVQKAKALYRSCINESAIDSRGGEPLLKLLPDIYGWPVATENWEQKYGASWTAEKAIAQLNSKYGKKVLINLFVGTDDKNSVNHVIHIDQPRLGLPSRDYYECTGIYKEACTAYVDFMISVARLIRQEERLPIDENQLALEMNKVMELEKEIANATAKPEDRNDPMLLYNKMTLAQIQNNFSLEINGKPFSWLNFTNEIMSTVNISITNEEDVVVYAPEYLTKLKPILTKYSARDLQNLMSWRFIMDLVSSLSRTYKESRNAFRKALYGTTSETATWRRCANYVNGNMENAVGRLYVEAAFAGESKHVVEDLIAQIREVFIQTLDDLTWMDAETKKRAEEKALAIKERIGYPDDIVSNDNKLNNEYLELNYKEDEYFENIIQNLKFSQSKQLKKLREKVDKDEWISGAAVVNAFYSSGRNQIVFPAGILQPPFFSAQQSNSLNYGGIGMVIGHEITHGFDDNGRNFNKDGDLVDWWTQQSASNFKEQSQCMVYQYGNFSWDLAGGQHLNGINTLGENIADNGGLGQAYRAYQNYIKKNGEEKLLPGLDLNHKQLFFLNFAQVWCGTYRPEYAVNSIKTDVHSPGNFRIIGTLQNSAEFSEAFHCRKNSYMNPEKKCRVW

Row | Structure (SMILES) | IC50 [1] [nM] | other results
1 | COCC[C@H](CC1(C(=O)N[C@@H](COCc2ccc(Cl)cc2)CC(=O)O)CCCC1)C(=O)O [Example 16, (2S)-2-[(1-{[((1R)-2-Carboxy-1-{[(4-chlorobenzyl)oxy]methyl}ethyl)amino]-carbonyl}cyclopentyl)methyl]-4-methoxybutanoic Acid] | 8.2 | –
2 | COCC[C@H](CC1(C(=O)N[C@@H](CCCc2ccc(OC)cc2)CC(=O)O)CCCC1)C(=O)O [Example 54, (3S)-3-[({1-[(2S)-2-carboxy-4-methoxybutyl]cyclopentyl}carbonyl)amino]-6-(4-methoxyphenyl)hexanoic Acid] | 4.7 | –
3 | CC1(C)OCC(COC(=O)C(Cc2ccccc2)N[C@@H](Cc2ccccc2)C(=O)NCCC(=O)O)O1 (some centres unmarked) [SCH34826] | – | supine blood pressure [2]: significantly lowered supine blood pressure
4 | COCCOC[C@H](CC1(C(=O)N[C@H]2CC[C@@H](C(=O)O)CC2)CCCC1)C(=O)Oc1ccc2c(c1)CCC2 [candoxatril] | – | supine and erect blood pressure (hypertensive patients): marked reduction in both supine and erect blood pressure
5 | COCCOC[C@H](CC1(C(=O)N[C@H]2CC[C@@H](C(=O)O)CC2)CCCC1)C(=O)O [candoxatrilat] | – | systolic blood pressure (hypertensive rats): lowers systolic blood pressure

More lines, main results first:

Row | IC50 [1] [nM] | Structure (SMILES) | other results
6 | 6.3 | CCC[C@H](CC1(C(=O)N[C@@H](CCOc2ccc(Cl)cc2)CC(=O)O)CCCC1)C(=O)O [Example 41, (3S)-3-[({1-[(2R)-2-Carboxypentyl]cyclopentyl}carbonyl)amino]-5-(4-chlorophenoxy)pentanoic Acid] | –
7 | 2.4 | COCC[C@H](CC1(C(=O)N[C@@H](CCOc2ccc(Cl)cc2)CC(=O)O)CCCC1)C(=O)O [Example 48, (3S)-3-[({1-[(2S)-2-Carboxy-4-methoxybutyl]cyclopentyl}carbonyl)amino]-5-(4-chlorophenoxy)pentanoic Acid] | –
8 | 0.7 | COCC[C@H](CC1(C(=O)N[C@@H](CCCc2ccc(Cl)cc2)CC(=O)O)CCCC1)C(=O)O [Example 53, (3S)-3-[({1-[(2S)-2-carboxy-4-methoxybutyl]cyclopentyl}carbonyl)amino]-6-(4-chlorophenyl)hexanoic Acid] | –
